pIC50: −log10 of the molar value.
Test system: phosphorylation of Serine 473 in Akt in MDA-MB-468 human breast adenocarcinoma cells
Assay: In vitro phospho-Ser473 Akt assay (Test (c))
Assay type: cell-based
Settings: Homo sapiens, MDA-MB-468, 2 h, MDA-MB-468 cells, 2 hours incubation; read-out: Test (c): IC50 versus Serine 473 in Akt
Method: (c) In Vitro Phospho-Ser473 Akt Assay
This assay determines the ability of test compounds to inhibit phosphorylation of Serine 473 in Akt as assessed using Acumen Explorer technology (Acumen Bioscience Limited), a plate reader that can be used to rapidly quantitate features of images generated by laser-scanning.
A MDA-MB-468 human breast adenocarcinoma cell line (LGC Promochem, Teddington, Middlesex, UK, Catalogue No. HTB-132) was routinely maintained at 37° C. with 5% CO2 up to a confluency of 70-90% in DMEM containing 10% heat-inactivated FCS and 1% L-glutamine.
For the assay, the cells were detached from the culture flask using ‘Accutase’ (Innovative Cell Technologies Inc., San Diego, Calif., USA; Catalogue No. AT104) using standard tissue culture methods and resuspended in media to give 1.7×10^5 cells per mL. Aliquots (90 μl) were seeded into each of the inner 60 wells of a black Packard 96 well plate (PerkinElmer, Boston, Mass., USA; Catalogue No. 6005182) to give a density of 15000 cells per well. Aliquots (90 μl) of culture media were placed in the outer wells to prevent edge effects. The cells were incubated overnight at 37° C. with 5% CO2 to allow them to adhere.
On day 2, the cells were treated with test compounds and incubated for 2 hours at 37° C. with 5% CO2. Test compounds were prepared as 10 mM stock solutions in DMSO and serially diluted as required with growth media to give a range of concentrations that were 10-fold the required final test concentrations. Aliquots (10 μl) of each compound dilution were placed in a well (in triplicate) to give the final required concentrations. As a minimum response control, each plate contained wells having a final concentration of 100 μM LY294002 (Calbiochem, Beeston, UK, Catalogue No. 440202). As a maximum response control, wells contained 1% DMSO instead of test compound. Following incubation, the contents of the plates were fixed by treatment with a 1.6% aqueous formaldehyde solution (Sigma, Poole, Dorset, UK, Catalogue No. F1635) at room temperature for 1 hour.
All subsequent aspiration and wash steps were carried out using a Tecan 96 well plate washer (aspiration speed 10 mm/sec). The fixing solution was removed and the contents of the plates were washed with phosphate-buffered saline (PBS; 50 μl; Gibco, Catalogue No. 10010015). The contents of the plates were treated for 10 minutes at room temperature with an aliquot (50 μl) of a cell permeabilisation buffer consisting of a mixture of PBS and 0.5% Tween-20. The ‘permeabilisation’ buffer was removed and non-specific binding sites were blocked by treatment for 1 hour at room temperature of an aliquot (50 μl) of a blocking buffer consisting of 5% dried skimmed milk [‘Marvel’ (registered trade mark); Premier Beverages, Stafford, GB] in a mixture of PBS and 0.05% Tween-20. The ‘blocking’ buffer was removed and the cells were incubated for 1 hour at room temperature with rabbit anti phospho-Akt (Ser473) antibody solution (50 μl per well; Cell Signalling, Hitchin, Herts, U.K., Catalogue No 9277) that had been diluted 1:500 in ‘blocking’ buffer. Cells were washed three times in a mixture of PBS and 0.05% Tween-20. Subsequently, cells were incubated for 1 hour at room temperature with Alexafluor488 labelled goat anti-rabbit IgG (50 μl per well; Molecular Probes, Invitrogen Limited, Paisley, UK, Catalogue No. A11008) that had been diluted 1:500 in ‘blocking’ buffer. Cells were washed 3 times with a mixture of PBS and 0.05% Tween-20. An aliquot of PBS (50 μl) was added to each well and the plates were sealed with black plate sealers and the fluorescence signal was detected and analysed.
Fluorescence dose response data obtained with each compound were analysed and the degree of inhibition of Serine 473 in Akt was expressed as an IC50 value.

Structure (SMILES) | pIC50
C[C@H]1COCCN1c1cc(C(C)(C)S(=O)(=O)C(C)(C)C)nc(-c2ccc(NC(=O)NC3CCC3)cc2)n1 [Example 66d, 3-cyclobutyl-1-[4-[4-[(3S)-3-methylmorpholin-4-yl]-6-(2-tert-butylsulfonylpropan-2-yl)pyrimidin-2-yl]phenyl]urea] | 6.80
C[C@H]1COCCN1c1cc(C(C)(C)S(C)(=O)=O)nc(-c2ccc(NC(=O)NCCCO)cc2)n1 [Example 24as, 3-(3-hydroxypropyl)-1-[4-[4-[(3S)-3-methylmorpholin-4-yl]-6-(2-methylsulfonylpropan-2-yl)pyrimidin-2-yl]phenyl]urea] | 6.66
CCNC(=O)Nc1ccc(-c2nc(N3CCOC[C@@H]3C)cc(C(C)(C)S(C)(=O)=O)n2)cn1 [Example 24ai, 1-ethyl-3-[5-[4-[(3S)-3-methylmorpholin-4-yl]-6-(2-methylsulfonylpropan-2-yl)pyrimidin-2-yl]pyridin-2-yl]urea] | 6.59
C[C@H]1COCCN1c1cc(C(C)(C)S(C)(=O)=O)nc(-c2ccc(NC(=O)N3CC(O)C3)cc2)n1 [Example 24bf, 3-hydroxy-N-[4-[4-[(3S)-3-methylmorpholin-4-yl]-6-(2-methylsulfonylpropan-2-yl)pyrimidin-2-yl]phenyl]azetidine-1-carboxamide] | 5.17
C[C@H]1COCCN1c1cc(CS(=O)(=O)c2ccc(F)cc2)nc(-c2ccc(NC(=O)NCCO)cc2)n1 [Example 61c, 1-[4-[4-[(4-fluorophenyl)sulfonylmethyl]-6-[(3S)-3-methylmorpholin-4-yl]pyrimidin-2-yl]phenyl]-3-(2-hydroxyethyl)urea] | 6.39
C[C@H]1COCCN1c1cc(CS(=O)(=O)c2ccc(F)cc2)nc(-c2ccc(NC(=O)NC3CCC3)cc2)n1 [Example 61, 3-Cyclobutyl-1-[4-[4-[(4-fluorophenyl)sulfonylmethyl]-6-[(3S)-3-methylmorpholin-4-yl]pyrimidin-2-yl]phenyl]urea] | 6.48
C[C@@H]1CN(C(=O)c2cc(N3CCOC[C@@H]3C)nc(-c3ccc(NC(=O)NC4CC4)cc3)n2)C[C@H](C)O1 [Example 63c, 3-cyclopropyl-1-[4-[4-[(2R,6S)-2,6-dimethylmorpholine-4-carbonyl]-6-[(3S)-3-methylmorpholin-4-yl]pyrimidin-2-yl]phenyl]urea] | 6.59
CC(C)CNC(=O)Nc1ccc(-c2nc(CS(=O)(=O)C(C)C)cc(N3CCOC[C@@H]3C)n2)cc1 [Example 60b, 1-[4-[4-[(3S)-3-methylmorpholin-4-yl]-6-(propan-2-ylsulfonylmethyl)pyrimidin-2-yl]phenyl]-3-(2-methylpropyl)urea] | 5.74
C[C@H]1COCCN1c1cc(C(C)(C)S(C)(=O)=O)nc(-c2ccc(NC(=O)N(C)C)cc2)n1 [Example 24ba, 1,1-dimethyl-3-[4-[4-[(3S)-3-methylmorpholin-4-yl]-6-(2-methylsulfonylpropan-2-yl)pyrimidin-2-yl]phenyl]urea] | 5.29
CC(C)NC(=O)Nc1ccc(-c2nc(N3CCOC[C@@H]3C)cc(C(C)(C)S(=O)(=O)C(C)C)n2)cc1 [Example 60k, 1-[4-[4-[(3S)-3-methylmorpholin-4-yl]-6-(2-propan-2-ylsulfonyl-propan-2-yl)pyrimidin-2-yl]phenyl]-3-propan-2-yl-urea] | 6.74
CNC(=O)Nc1ccc(-c2nc(CS(=O)(=O)C3CC3)cc(N3CCOC[C@@H]3C)n2)cc1 [Example 57d, 1-[4-[4-(cyclopropylsulfonylmethyl)-6-[(3S)-3-methylmorpholin-4-yl]pyrimidin-2-yl]phenyl]-3-methyl-urea] | 6.08
C[C@H]1COCCN1c1cc(C(C)(C)S(=O)(=O)C2CC2)nc(-c2ccc(NC(=O)Nc3cnn(C)c3)cc2)n1 [Example 57c, 1-[4-[4-(2-cyclopropylsulfonylpropan-2-yl)-6-[(3S)-3-methylmorpholin-4-yl]pyrimidin-2-yl]phenyl]-3-(1-methylpyrazol-4-yl)urea] | 6.44
C[C@H]1COCCN1c1cc(C(C)(C)S(C)(=O)=O)nc(-c2ccc(NC(=O)N(C)C3CC3)cc2)n1 [Example 24bg, 1-cyclopropyl-1-methyl-3-[4-[4-[(3S)-3-methylmorpholin-4-yl]-6-(2-methylsulfonylpropan-2-yl)pyrimidin-2-yl]phenyl]urea] | 5.62
CC(C)S(=O)(=O)Cc1cc(N2CCOC[C@@H]2C)nc(-c2ccc(NC(=O)NCCCO)cc2)n1 [Example 60c, 3-(3-hydroxypropyl)-1-[4-[4-[(3S)-3-methylmorpholin-4-yl]-6-(propan-2-ylsulfonylmethyl)pyrimidin-2-yl]phenyl]urea] | 6.11
CC(C)S(=O)(=O)Cc1cc(N2CCOC[C@@H]2C)nc(-c2ccc(NC(=O)Nc3cnn(C)c3)cc2)n1 [Example 60h, 1-[4-[4-[(3S)-3-methylmorpholin-4-yl]-6-(propan-2-ylsulfonylmethyl)pyrimidin-2-yl]phenyl]-3-(1-methylpyrazol-4-yl)urea] | 5.72
CCNC(=O)Nc1ccc(-c2nc(CS(=O)(=O)c3ccncc3)cc(N3CCOC[C@@H]3C)n2)cc1 [Example 48a, 3-ethyl-1-[4-[4-[(3S)-3-methylmorpholin-4-yl]-6-(pyridin-4-ylsulfonylmethyl)pyrimidin-2-yl]phenyl]urea] | 6.60

Now those with a higher pIC50, led by results:

pIC50 | Structure (SMILES)
7.05 | CC(C)CNC(=O)Nc1ccc(-c2nc(N3CCOC[C@@H]3C)cc(C(C)(C)S(C)(=O)=O)n2)cc1 [Example 24at, 1-[4-[4-[(3S)-3-methylmorpholin-4-yl]-6-(2-methylsulfonylpropan-2-yl)pyrimidin-2-yl]phenyl]-3-(2-methylpropyl)urea]
7.02 | C[C@H]1COCCN1c1cc(CS(=O)(=O)C2CC2)nc(-c2ccc(NC(=O)Nc3cnn(C)c3)cc2)n1 [Example 57g, 1-[4-[4-(cyclopropylsulfonylmethyl)-6-[(3S)-3-methylmorpholin-4-yl]pyrimidin-2-yl]phenyl]-3-(1-methylpyrazol-4-yl)urea]
7.00 | CC(=O)NCCS(=O)(=O)Cc1cc(N2CCOC[C@@H]2C)nc(-c2ccc(NC(=O)Nc3ccon3)cc2)n1 [Example 40, N-[2-[[6-[(3S)-3-methylmorpholin-4-yl]-2-[4-(1,2-oxazol-3-ylcarbamoylamino)phenyl]pyrimidin-4-yl]methylsulfonyl]ethyl]acetamide]
6.96 | COCc1cc(N2CCOC[C@@H]2C)nc(-c2ccc(NC(=O)NC3CC3)cc2)n1 [Example 54, 3-Cyclopropyl-1-[4-[4-(methoxymethyl)-6-[(3S)-3-methylmorpholin-4-yl]pyrimidin-2-yl]phenyl]urea]
7.23 | CC(C)S(=O)(=O)C(C)(C)c1cc(N2CCOC[C@@H]2C)nc(-c2ccc(NC(=O)NC3CCC3)cc2)n1 [Example 60m, 3-cyclobutyl-1-[4-[4-[(3S)-3-methylmorpholin-4-yl]-6-(2-propan-2-ylsulfonylpropan-2-yl)pyrimidin-2-yl]phenyl]urea]
7.31 | C[C@H]1COCCN1c1cc(C(C)(C)S(C)(=O)=O)nc(-c2ccc(NC(=O)NCc3ccncc3)cc2)n1 [Example 24ar, 1-[4-[4-[(3S)-3-methylmorpholin-4-yl]-6-(2-methylsulfonylpropan-2-yl)pyrimidin-2-yl]phenyl]-3-(pyridin-4-ylmethyl)urea]
7.33 | C[C@H]1COCCN1c1cc(C(C)(C)O)nc(-c2ccc(NC(=O)Nc3ccon3)cc2)n1 [Example 41, 1-[4-[4-(2-Hydroxypropan-2-yl)-6-[(3S)-3-methylmorpholin-4-yl]pyrimidin-2-yl]phenyl]-3-(1,2-oxazol-3-yl)urea]
